Measurements taken from patent US20200405868A1, “GEL-FORMING POLYPEPTIDES” (priority 2018, published 2020).
The star is where a group is joined. Palmitoyl = CCCCCCCCCCCCCCCC(=O)*

Experiment: Compound gel-forming ability in water (visual inspection, tube tapping assay, tilted tube assay);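 note: peptides mixed with de-ionized water at about 22-25 °C, judged after 20 min by eye plus tube tapping (10 taps, moves counted) and 90° tilt mobility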
Format: physicochemical
Details: for gel formation at 11% w/w: 11% w/w in water; for gel formation in aqueous solution, 11% / propensity to form gels, chimeric or mutated polypeptides, 11% / propensity to form gels, wild-type counterparts, 11%: 11% w/w; for gel formation at 20% w/w: 20% w/w in water; for Physical property at 11% w/w: 11% w/w in aqueous solution, room temperature

For “Pal-SSPHSY-miniPEG-PFRSVQ-NH2 [SEQ ID NO:242]”, the “gel formation at 6% w/w” value (6% w/w in water) was “liquid gel”, the “gel formation at 11% w/w” value was “semisolid gel” and the “gel formation in aqueous solution, 11%” value (Table 3) was “SS (SS for semisolid gel)”. The “propensity to form gels, chimeric or mutated polypeptides, 11%” value (Table 5) was “SS (An ability to form semisolid gel is represented by an SS)”.
With “Pal-SSPHSY-miniPEG-RC-(D-Ala)-H-(D-Phe)-RWC-NH2. [SEQ ID NO:227]” the “gel formation at 30% w/w” value (30% w/w in water) was “form gel”, the “gel formation in aqueous solution, 11%” value (Table 3) was “AS/IS (AS/IS for aqueous solution or insoluble)” and the “gel formation in aqueous solution, 30%” value (Table 3, 30% w/w) was “SS (SS for semisolid gel)”.
For “Pal-SSPHSY-miniPEG-RGD-NH2 [SEQ ID NO:247]”, the “gel formation at 11% w/w” value was “semisolid gel”, the “gel formation in aqueous solution, 11%” value (Table 3) was “SS (SS for semisolid gel)” and the “propensity to form gels, chimeric or mutated polypeptides, 11%” value (Table 5) was “SS (An ability to form semisolid gel is represented by an SS)”.
For “Pal-SSPHSY-miniPEG-SDAAVDTSSEITTKDLKEKKEVVEEAEN-NH2 ({Palmitoyl-Ser-Ser-Pro-H2N-Ser-Tyr-miniPEG}-SDAAVDTSSEITTKDLKEKKEVVEEAEN-NH2) [SEQ ID NO:239]”, the “gel formation at 11% w/w” value was “does not form gel” and the “gel formation in aqueous solution, 11%” value (Table 3) was “AS/IS (AS/IS for aqueous solution or insoluble)”.
In the case of “Pal-SSPHSY-miniPEG-SLRRSSCFGGRMDRIGAQSGLGCNSFRY-NH2 [SEQ ID NO:238]”, the “gel formation at 11% w/w” value is reported as “semisolid gel”, the “gel formation at 20% w/w” value is reported as “semisolid gel” and the “gel formation in aqueous solution, 11%” value (Table 3) is reported as “SS (SS for semisolid gel)”. For the same substance, the “gel formation in aqueous solution, 20%” value (Table 3, 20% w/w) was “SS (SS for semisolid gel)”, the “propensity to form gels, chimeric or mutated polypeptides, 11%” value (Table 5) was “SS (An ability to form semisolid gel is represented by an SS)” and the “propensity to form gels, chimeric or mutated polypeptides, 20%” value (Table 5, 20% w/w) was “SS (An ability to form semisolid gel is represented by an SS)”.
For “Pal-SSPHSY-miniPEG-SYSMEHFRWGKPVGKKRRPVKVYP-OH [SEQ ID NO:225]”, the “gel formation in aqueous solution, 11%” value (Table 3) was “AS/IS (AS/IS for aqueous solution or insoluble)” and the “gel formation in aqueous solution, 20%” value (Table 3, 20% w/w) was “SS (SS for semisolid gel)”.
For “Pal-SSPHSY-miniPEG-VGVAPG-NH2 [SEQ ID NO:248]”, the “gel formation at 11% w/w” value was “liquid gel”, the “gel formation at 20% w/w” value was “semisolid gel” and the “gel formation in aqueous solution, 20%” value (Table 3, 20% w/w) was “SS (SS for semisolid gel)”. For the same substance, the “propensity to form gels, chimeric or mutated polypeptides, 20%” value (Table 5, 20% w/w) was “SS (An ability to form semisolid gel is represented by an SS)”.
In the case of “Pal-SSPHSY-miniPEG-YADAIFTNSYRKVLGQLSARKLLQDIMSR-NH2 [SEQ ID NO:236]”, the “gel formation in aqueous solution, 6%” value (Table 3, 6% w/w) is reported as “AS/IS (AS/IS for aqueous solution or insoluble)” and the “gel formation in aqueous solution, 11%” value (Table 3) is reported as “AS/IS (AS/IS for aqueous solution or insoluble)”.
With “Pal-SSPHSY-miniPEG-YIGSR-NH2 [SEQ ID NO:246]” the “gel formation at 11% w/w” value was “semisolid gel”, the “gel formation in aqueous solution, 6%” value (Table 3, 6% w/w) was “SS (SS for semisolid gel)” and the “gel formation in aqueous solution, 11%” value (Table 3) was “SS (SS for semisolid gel)”. The “propensity to form gels, chimeric or mutated polypeptides, 6%” value (Table 5, 6% w/w) was “SS (An ability to form semisolid gel is represented by an SS)” and the “propensity to form gels, chimeric or mutated polypeptides, 11%” value (Table 5) was “SS (An ability to form semisolid gel is represented by an SS)”.
For “Pal-SSPHSY-miniPEG-YRSRKYSSVVY-NH2 ({Palmitoyl-Ser-Ser-Pro-H2N-Ser-Tyr-miniPEG}-YRSRKYSSVVY-NH2) [SEQ ID NO:249]”, the “gel formation at 11% w/w” value was “semisolid gel”, the “gel formation in aqueous solution, 6%” value (Table 3, 6% w/w) was “AS/IS (AS/IS for aqueous solution or insoluble)” and the “gel formation in aqueous solution, 11%” value (Table 3) was “SS (SS for semisolid gel)”. The “propensity to form gels, chimeric or mutated polypeptides, 6%” value (Table 5, 6% w/w) was “AS/IS” and the “propensity to form gels, chimeric or mutated polypeptides, 11%” value (Table 5) was “SS (An ability to form semisolid gel is represented by an SS)”.
For “Pal-VGSKAF-NH2 (Palmitoyl-VGSKAF-NH2; SMILES CCCCCCCCCCCCCCCC(=O)N[C@H](C(=O)NCC(=O)N[C@@H](CO)C(=O)N[C@@H](CCCCN)C(=O)N[C@@H](C)C(=O)N[C@@H](Cc1ccccc1)C(N)=O)C(C)C; UniProt P06881 114-119, looked up, fragment) [SEQ ID NO:132]”, the “Physical property at 11% w/w” value (Table 2) was “AS/IS (AS/IS for aqueous solution or insoluble)”.
In the case of Pal-VGSNTY-NH2 [SEQ ID NO:133], the “Physical property at 11% w/w” value (Table 2) is reported as “AS/IS (AS/IS for aqueous solution or insoluble)”.
For “Pal-VQKLAHQIYQFTDKDVAPRSKISPQGY-NH2 (Palmitoyl-VQKLAHQIYQFTDKDVAPRSKISPQGY-NH2; SMILES CCCCCCCCCCCCCCCC(=O)N[C@H](C(=O)N[C@@H](CCC(N)=O)C(=O)N[C@@H](CCCCN)C(=O)N[C@@H](CC(C)C)C(=O)N[C@@H](C)C(=O)N[C@@H](Cc1c[nH]cn1)C(=O)N[C@@H](CCC(N)=O)C(=O)N[C@H](C(=O)N[C@@H](Cc1ccc(O)cc1)C(=O)N[C@@H](CCC(N)=O)C(=O)N[C@@H](Cc1ccccc1)C(=O)N[C@H](C(=O)N[C@@H](CC(=O)O)C(=O)N[C@@H](CCCCN)C(=O)N[C@@H](CC(=O)O)C(=O)N[C@H](C(=O)N[C@@H](C)C(=O)N1CCC[C@H]1C(=O)N[C@@H](CCCNC(=N)N)C(=O)N[C@@H](CO)C(=O)N[C@@H](CCCCN)C(=O)N[C@H](C(=O)N[C@@H](CO)C(=O)N1CCC[C@H]1C(=O)N[C@@H](CCC(N)=O)C(=O)NCC(=O)N[C@@H](Cc1ccc(O)cc1)C(N)=O)[C@@H](C)CC)C(C)C)[C@@H](C)O)[C@@H](C)CC)C(C)C) [SEQ ID NO:102]”, the “Physical property at 11% w/w” value (Table 2) was “AS/IS (AS/IS for aqueous solution or insoluble)”.
In the case of “Pal-VQKLPHSY-NH2 (Palmitoyl-VQKLPHSY-NH2; SMILES CCCCCCCCCCCCCCCC(=O)N[C@H](C(=O)N[C@@H](CCC(N)=O)C(=O)N[C@@H](CCCCN)C(=O)N[C@@H](CC(C)C)C(=O)N1CCC[C@H]1C(=O)N[C@@H](Cc1c[nH]cn1)C(=O)N[C@@H](CO)C(=O)N[C@@H](Cc1ccc(O)cc1)C(N)=O)C(C)C) [SEQ ID NO:117]”, the “Physical property at 11% w/w” value (Table 2) is reported as “SS (SS for semisolid gel)”.
In the case of “Pal-VQKLVDPSSPHSY-NH2 (Palmitoyl-VQKLVDPSSPHSY-NH2; SMILES CCCCCCCCCCCCCCCC(=O)N[C@H](C(=O)N[C@@H](CCC(N)=O)C(=O)N[C@@H](CCCCN)C(=O)N[C@@H](CC(C)C)C(=O)N[C@H](C(=O)N[C@@H](CC(=O)O)C(=O)N1CCC[C@H]1C(=O)N[C@@H](CO)C(=O)N[C@@H](CO)C(=O)N1CCC[C@H]1C(=O)N[C@@H](Cc1c[nH]cn1)C(=O)N[C@@H](CO)C(=O)N[C@@H](Cc1ccc(O)cc1)C(N)=O)C(C)C)C(C)C) [SEQ ID NO:112]”, the “Physical property at 11% w/w” value (Table 2) is reported as “SS (SS for semisolid gel)”.
In the case of “QQRFEWEFEQQ-miniPEG-RPKPQQFFGLM-NH2 [SEQ ID NO:285]”, the “gel formation in aqueous solution, 6%” value (Table 3, 6% w/w) is reported as “AS/IS (AS/IS for aqueous solution or insoluble)” and the “gel formation in aqueous solution, 11%” value (Table 3) is reported as “AS/IS (AS/IS for aqueous solution or insoluble)”.
In the case of “RGD-NH2 [SEQ ID NO:44, reference compound]”, the “Physical property at 11% w/w” value (Table 1) is reported as “AS/IS”, the “gel formation in aqueous solution, 11%” value (Table 3) is reported as “AS/IS (AS/IS for aqueous solution or insoluble)” and the “propensity to form gels, wild-type counterparts, 11%” value (Table 5) is reported as “AS/IS”.
With “RPKPQQFF-Sar-L-Met-(O2)-NH2 [SEQ ID NO:69, reference compound]” the “gel formation in aqueous solution, 6%” value (Table 3, 6% w/w) was “AS/IS (AS/IS for aqueous solution or insoluble)”, the “gel formation in aqueous solution, 11%” value (Table 3) was “AS/IS (AS/IS for aqueous solution or insoluble)” and the “gel formation in aqueous solution, 20%” value (Table 3, 20% w/w) was “AS/IS (AS/IS for aqueous solution or insoluble)”. The “propensity to form gels, wild-type counterparts, 6%” value (Table 5, 6% w/w) was “AS/IS”, the “propensity to form gels, wild-type counterparts, 11%” value (Table 5) was “AS/IS” and the “propensity to form gels, wild-type counterparts, 20%” value (Table 5, 20% w/w) was “AS/IS”.
With “RPKPQQFFGLM-NH2 [SEQ ID NO:23, reference compound]” the “gel formation at 11% w/w” value was “semisolid gel”, the “Physical property at 11% w/w” value (Table 1) was “AS/IS” and the “gel formation in aqueous solution, 11%” value (Table 3) was “AS/IS (AS/IS for aqueous solution or insoluble)”. For the same substance, the “propensity to form gels, wild-type counterparts, 11%” value (Table 5) was “AS/IS”.
